These results are taken from patent US20100160297A1, “COMPOUNDS FOR PIM KINASE INHIBITION AND FOR TREATING MALIGNANCY” (Amnestix, Inc., priority 2008, published 2010).

The structures appear in SMILES notation. “Also recorded” adds a separate entry of the source. Where a name gives a salt, the structure may show the parent alone.

For orientation: melting point means the temperature of the solid-liquid transition.

The target in series [1] is T1, PIM-1 kinase (Homo sapiens, UniProt P11309).
T1 construct: purchased Cell Signaling Technology Inc., Boston, USA
As to the kind of experiment: In vitro assay for PIM-1 kinase inhibition (PIM-1 Kinase Assay Kit, colorimetric ELISA). The series is classed as biochemical. Particulars: for PIM-1 kinase inhibition (result in words): test compound 0.1 to 100 μM, FIG. 1 (1.5 ng PIM-1) and FIG. 2 (2.5 ng PIM-1). As for the experimental part:
In vitro assays of PIM-1 kinase activity (1.5 ng) in the presence of increasing concentrations of the compounds A, B, C or D were performed as described within example 5. An assay without additional test compound served as positive control for the assay (pos) and an assay without PIM-1 kinase served as negative assay (neg). […] Each assay result was normalized in comparison to the positive control which was defined as 100% activity.
In vitro assays of PIM-1 kinase activity (2.5 ng) in the presence of increasing concentrations of the compound E were performed as described within example 5. An assay without additional test compound served as positive control for the assay (pos) and an assay without PIM-1 kinase served as negative assay (neg). […] Each assay result was normalized in comparison to the positive control which was defined as 100% activity.
The in vitro assay for PIM-1 kinase inhibition was performed using the PIM-1 Kinase Assay Kit (Cell Signaling Technology Inc., Boston, USA) according to the manufacture's instruction. Briefly, 1.5 or 2.5 ng PIM-1 kinase has been dissolved in 50 μl assay buffer (25 mM Tris-Hcl (pH 7.5), 10 mM MgCl2, 5 mM beta-glycerophosphate, 0.1 mM Na3VO4, 2 mM DTT, 200 μM ATP, and 1.5 μM peptide substrate) and test compound has been added to a final concentration in a range of 0.1 to 100 μM. After 30 minutes incubation at ambient temperature the reaction was stopped by adding 50 μl Stop buffer (50 mM EDTA, pH 8) per reaction. An aliquot of 25 μl per reaction was diluted each by 75 μl water and transferred to a 96-well streptavidin-coated plate. After 60 minutes incubation and three times washing with PBS, 100 μl/well primary antibody (Phospho-Bad (Ser112) antibody, 1:1000 diluted in PBS) was added. After further 2 h incubation and three times washing with PBS, an usual colorimetric ELISA assay was performed using a HRP labeled second antibody according to the manufacture's instructions. A PIM kinase reaction without addition of a test compound served as positive control (pos) and an assay without PIM kinase served as negative control (neg). […] The PIM-1 kinase inhibition of the test compounds (1-chloro-5-([1,4]diazepane-1-sulfonyl)-8-propoxy-isoquinoline (compound A), 1-chloro-5-(piperazin-1-sulfonyl)-8-methoxy-isoquinoline (compound B), 1-methyl-5-([1,4]diazepane-1-sulfonyl)-8-methoxy-isoquinoline (compound C), and 1-chloro-5-([1,4]diazepane-1-sulfonyl)-6-methoxy-isoquinoline (compound D)) was measured in a first series of assays, and the one of the compound 5-([1,4]diazepane-1-sulfonyl)-8-methoxy-isoquinoline (compound E) was measured in a second series of assays. Within each series of assays the measured PIM-1 kinase activity was normalized in comparison to the positive control (pos) which was defined as 100% activity. […] The table below summarizes the percentage of the remaining PIM-1 kinase activity in the presence of the test compounds in a final concentration of 100 μM.
On the technique in general: An ELISA detects its analyte on a solid surface through an enzyme-linked reagent.

T1 sequence (P11309 whole entry): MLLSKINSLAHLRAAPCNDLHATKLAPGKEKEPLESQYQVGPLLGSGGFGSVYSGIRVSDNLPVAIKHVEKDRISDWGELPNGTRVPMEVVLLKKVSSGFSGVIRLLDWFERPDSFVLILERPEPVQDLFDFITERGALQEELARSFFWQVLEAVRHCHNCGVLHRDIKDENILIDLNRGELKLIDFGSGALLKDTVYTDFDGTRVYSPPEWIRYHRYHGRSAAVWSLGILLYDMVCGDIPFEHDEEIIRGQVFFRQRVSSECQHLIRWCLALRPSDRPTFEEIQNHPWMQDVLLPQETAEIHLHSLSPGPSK

On to `COc1ccc(S(=O)(=O)N2CCNCC2)c2ccnc(Cl)c12` [B, 1-chloro-5-(piperazin-1-sulfonyl)-8-methoxy-isoquinoline], for which, in series [1], the “PIM-1 kinase inhibition (result in words)” value (shortened to “PIM-1 kinase inhibition”) was “potent PIM inhibitory effect; also recorded: potent PIM-1 kinase inhibitors”.

With `COc1ccc2c(Cl)nccc2c1S(=O)(=O)N1CCCNCC1` [D, 1-chloro-5-([1,4]diazepane-1-sulfonyl)-6-methoxy-isoquinoline], the “PIM-1 kinase inhibition” value in series [1] was “potent PIM inhibitory effect; also recorded: potent PIM-1 kinase inhibitors”.

For `COc1ccc(S(=O)(=O)N2CCCNCC2)c2ccnc(C)c12` [C, 1-methyl-5-([1,4]diazepane-1-sulfonyl)-8-methoxy-isoquinoline], in series [1], the “PIM-1 kinase inhibition” value is recorded as “potent PIM inhibitory effect; also recorded: potent PIM-1 kinase inhibitors”.

With `CCCOc1ccc(S(=O)(=O)N2CCCNCC2)c2ccnc(Cl)c12` [Compound A, 1-chloro-5-([1,4]diazepane-1-sulfonyl)-8-propoxy-isoquinoline], in series [1], the “PIM-1 kinase inhibition” value is listed as “potent PIM inhibitory effect; also recorded: potent PIM-1 kinase inhibitors”.

Turning to `COc1ccc2c(Cl)nccc2c1S(=O)(=O)N1CCCNCC1` (as salt: hydrochloride) [1-chloro-5-([1,4]diazepane-1-sulfonyl)-6-methoxy-isoquinoline], the melting point was in the range of 219 to 221 °C.

As to `COc1ccc(S(=O)(=O)N2CCCNCC2)c2ccncc12` [E, 5-([1,4]diazepane-1-sulfonyl)-8-methoxy-isoquinoline], the “PIM-1 kinase inhibition” value in series [1] was “at most a moderate PIM-1 kinase inhibition; also recorded: only weak PIM inhibitory effect”.

As for `COc1ccc(S(=O)(=O)N2CCCNCC2)c2ccnc(Cl)c12` [G, 1-chloro-8-methoxy-Fasudil, reference compound], the “% remaining PIM-1 kinase activity” value in series [1] (test compound 100 μM final concentration, normalized to positive control (no test compound) = 100% activity, 1.5 or 2.5 ng PIM-1 kinase, 200 μM ATP) is 17%. Besides, the “PIM-1 kinase inhibition” value in series [1] is reported as “very potent PIM-1 inhibitor”.

As for `O=S(=O)(c1cccc2cnccc12)N1CCCNCC1` [F, Fasudil, reference compound], the “PIM-1 kinase inhibition” value in series [1] is listed as “at the most very weak PIM-1 inhibition”.
